Experimental data as given in ChEMBL document CHEMBL5390321, “Transaminases Provide Key Chiral Building Blocks for the Synthesis of Selective M1/M4 Agonists” (ACS Med Chem Lett, 2023).

Assays:
Type in all cases: functional, cell-based
[1] = target: T1, Muscarinic acetylcholine receptor M5 (Homo sapiens, UniProt P08912); assay: Activation of human cloned muscarinic M5 receptor expressed in CHO-K1 cells by Calcium flux assay relative to control
T1 sequence (P08912 whole entry): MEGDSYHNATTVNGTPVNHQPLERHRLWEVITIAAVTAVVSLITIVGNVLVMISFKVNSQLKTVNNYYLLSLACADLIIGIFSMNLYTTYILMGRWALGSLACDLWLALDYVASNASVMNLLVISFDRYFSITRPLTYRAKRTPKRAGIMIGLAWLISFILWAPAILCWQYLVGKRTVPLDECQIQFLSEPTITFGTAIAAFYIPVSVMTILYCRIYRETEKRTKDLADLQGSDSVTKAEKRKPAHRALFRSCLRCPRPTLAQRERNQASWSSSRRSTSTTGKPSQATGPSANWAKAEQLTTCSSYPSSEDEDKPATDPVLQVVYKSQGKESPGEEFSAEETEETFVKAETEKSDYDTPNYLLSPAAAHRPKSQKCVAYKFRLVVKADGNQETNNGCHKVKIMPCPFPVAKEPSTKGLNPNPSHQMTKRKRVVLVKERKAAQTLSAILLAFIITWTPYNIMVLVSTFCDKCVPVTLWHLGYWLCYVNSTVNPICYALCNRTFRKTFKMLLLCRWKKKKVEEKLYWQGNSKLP

[2] = target: Muscarinic acetylcholine receptor M3 (Homo sapiens, UniProt P20309); assay: Activation of human cloned muscarinic M3 receptor expressed in CHO-K1 cells by Calcium flux assay relative to control
Muscarinic acetylcholine receptor M3, sequence (P20309 whole entry): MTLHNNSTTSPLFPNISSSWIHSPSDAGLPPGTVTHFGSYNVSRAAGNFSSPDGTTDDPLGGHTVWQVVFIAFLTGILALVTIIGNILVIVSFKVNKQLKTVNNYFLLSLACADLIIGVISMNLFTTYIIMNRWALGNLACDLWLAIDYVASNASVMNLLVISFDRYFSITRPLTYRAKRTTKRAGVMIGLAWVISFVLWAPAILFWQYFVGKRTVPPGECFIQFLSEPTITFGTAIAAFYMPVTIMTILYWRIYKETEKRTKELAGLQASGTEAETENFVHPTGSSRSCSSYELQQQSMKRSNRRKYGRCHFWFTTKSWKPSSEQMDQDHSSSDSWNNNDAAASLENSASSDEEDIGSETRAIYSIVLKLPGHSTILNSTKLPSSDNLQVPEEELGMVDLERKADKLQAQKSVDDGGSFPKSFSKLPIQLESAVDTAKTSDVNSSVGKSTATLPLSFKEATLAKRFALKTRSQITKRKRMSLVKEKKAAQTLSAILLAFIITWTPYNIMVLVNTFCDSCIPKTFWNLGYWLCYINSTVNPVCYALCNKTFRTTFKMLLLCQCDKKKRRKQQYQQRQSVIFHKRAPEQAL

[3] = target: T2, Muscarinic acetylcholine receptor M4 (Homo sapiens, UniProt P08173); assay: Activation of human cloned muscarinic M4 receptor expressed in CHO-K1 cells by Calcium flux assay relative to control
T2 sequence (P08173 whole entry): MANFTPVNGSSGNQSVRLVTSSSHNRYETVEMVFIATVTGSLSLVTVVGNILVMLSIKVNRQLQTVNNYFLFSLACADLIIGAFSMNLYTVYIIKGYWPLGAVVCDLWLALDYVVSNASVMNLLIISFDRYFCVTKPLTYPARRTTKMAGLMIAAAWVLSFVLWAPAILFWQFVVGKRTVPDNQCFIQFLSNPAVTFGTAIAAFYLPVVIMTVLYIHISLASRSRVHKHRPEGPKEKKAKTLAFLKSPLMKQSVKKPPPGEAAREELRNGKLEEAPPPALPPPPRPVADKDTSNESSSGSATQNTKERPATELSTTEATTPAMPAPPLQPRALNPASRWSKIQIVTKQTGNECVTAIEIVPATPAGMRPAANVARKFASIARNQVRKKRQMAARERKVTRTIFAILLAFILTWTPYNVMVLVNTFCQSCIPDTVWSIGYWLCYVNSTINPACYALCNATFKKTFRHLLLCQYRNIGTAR

[4] = target: T3, Muscarinic acetylcholine receptor M2 (Homo sapiens, UniProt P08172); assay: Activation of human cloned muscarinic M2 receptor expressed in CHO-K1 cells by Calcium flux assay
T3 sequence (P08172 whole entry): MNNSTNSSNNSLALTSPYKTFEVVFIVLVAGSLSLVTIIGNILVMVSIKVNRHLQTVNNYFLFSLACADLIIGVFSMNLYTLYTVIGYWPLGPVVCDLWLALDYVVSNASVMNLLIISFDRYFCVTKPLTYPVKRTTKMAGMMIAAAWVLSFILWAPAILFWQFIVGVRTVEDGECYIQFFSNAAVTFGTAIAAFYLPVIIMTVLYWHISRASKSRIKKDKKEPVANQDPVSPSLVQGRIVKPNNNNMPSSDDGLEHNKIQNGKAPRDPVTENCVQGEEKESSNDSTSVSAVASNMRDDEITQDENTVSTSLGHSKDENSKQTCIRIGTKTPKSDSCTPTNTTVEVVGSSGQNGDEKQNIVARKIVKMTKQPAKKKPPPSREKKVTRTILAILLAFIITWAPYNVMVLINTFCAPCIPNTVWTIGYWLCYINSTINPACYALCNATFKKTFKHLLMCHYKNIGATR

Compound	EC50 [1]	EC50 [2]	EC50 [3]	EC50 [4]
COc1cc(F)ccc1C1CCN([C@@H]2COC3(C2)CN(C(=O)C2COC2)C3)CC1	> 25 µM	> 25 µM	–	–
COc1cc(F)ccc1C1CCN([C@@H]2CCC3(C2)CN(C(=O)C2COC2)C3)CC1	> 25 µM	> 25 µM	9.3 nM	–
CCOc1ccccc1C1CCN([C@@H]2CCC3(C2)CN(C(=O)CC)C3)CC1	> 25 µM	> 25 µM	–	–
CCOc1ccccc1C1CCN([C@@H]2CCC3(C2)CN(C(C)=O)C3)CC1	–	> 25 µM	–	–
COc1ccc(F)cc1C1CCN([C@@H]2COC3(C2)CN(C(=O)C2COC2)C3)CC1	> 25 µM	> 25 µM	–	–
CCCCCCOc1nsnc1C1=CCCN(C)C1 [XANOMELINE]	–	0.11 µM	–	–
CCOc1ccccc1C1CCN([C@@H]2CCC3(C2)CN(C(=O)C2COC2)C3)CC1	> 25 µM	> 25 µM	6.5 nM	210 nM
COc1ccccc1C1CCN([C@@H]2COC3(C2)CN(C(=O)C2COC2)C3)CC1	> 25 µM	> 25 µM	–	–
COc1ccc(F)cc1C1CCN([C@@H]2CCC3(C2)CN(C(=O)C2COC2)C3)CC1	0.14 µM	> 25 µM	1.7 nM	–
COc1ccccc1C1CCN(C2CCC3(C2)CN(C(=O)C2COC2)C3)CC1 (single isomer, unassigned)	–	> 25 µM	–	–
